From BindingDB's records for doi:10.1021/jm00076a030 (Eli Lilly, 1994) come the findings set out here.

This test addresses Leukotriene B4 receptor (Cavia porcellus). The experiment in a line: Tested for inhibition of specific binding of [3H]LTB4 to guinea pig lung membranes expressing LTB4 receptor.

Structures are written as SMILES.

The term Ki denotes the dissociation constant of the complex between target and ligand, obtained from inhibition or displacement. The low end stands for higher affinity, the high end for lower affinity. `CCc1cc(-c2ccccc2)c(O)cc1OCCCOc1ccc2c(=O)c3ccccc3oc2c1CCC(=O)O` [3-{3-[3-(5-Ethyl-2-hydroxy-biphenyl-4-yloxy)-propoxy]-9-oxo-9H-xanthen-4-yl}-propionic acid] came in with a Ki of 12 nM.

`CCc1cc(-c2ccccc2)c(O)cc1OCCCOc1ccc2c(=O)c3cc(C(=O)O)ccc3oc2c1CCC(=O)O` [5-(2-Carboxy-ethyl)-6-[3-(5-ethyl-2-hydroxy-biphenyl-4-yloxy)-propoxy]-9-oxo-9H-xanthene-2-carboxylic acid] showed a Ki of 0.11 nM. Compared with the last compound, the Ki is about 110-fold lower.
